The record followed here is patent US20240132531A1, “NOVEL GALACTOSIDE INHIBITOR OF GALECTINS” (GALECTO BIOTECH AB, priority 2020, published 2024).

Structures are written as SMILES.

For experiment [1], the target named is galectin-1 (Homo sapiens, UniProt P09382). Description: Fluorescence anisotropy assay, affinity for galectin-1. The class given is binding. As to conditions: compound as inhibitor of the interaction between galectin and a fluorescein tagged saccharide probe; read-out: Gal-1 Kd. The procedure: (§1) The affinity of Example 1-39 for galectins were determined by a fluorescence anisotropy assay where the compound was used as an inhibitor of the interaction between galectin and a fluorescein tagged saccharide probe as described Sarme, P., Kahl-Knutsson, B., Huflejt, M., Nilsson, U. J., and Leffler H. (2004) Fluorescence polarization as an analytical tool to evaluate galectin-ligand interactions. Anal. Biochem. 334: 36-47, (Sarme et al., 2004) and Monovalent interactions of Galectin-1 By Salomonsson, Emma; Larumbe, Amaia; Tejler, Johan; Tullberg, Erik; Rydberg, Hanna; Sundin, Anders; Khabut, Areej; Frejd, Torbjorn; Lobsanov, Yuri D.; Rini, James M.; et al, From Biochemistry (2010), 49(44), 9518-9532, (Salomonsson et al., 2010).
galectin-1, sequence (P09382 whole entry): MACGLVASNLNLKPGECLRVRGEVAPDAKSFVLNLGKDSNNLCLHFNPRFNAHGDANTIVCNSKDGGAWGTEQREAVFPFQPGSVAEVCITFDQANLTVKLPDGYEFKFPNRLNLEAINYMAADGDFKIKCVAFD
(In general: Polarisation of emitted light reports the rotation of a fluorescent probe.)

The target of experiment [2] is galectin-3 (Homo sapiens, UniProt P17931). As to the kind of experiment: Fluorescence anisotropy assay, affinity for galectin-3. The class given is binding. As to conditions: compound as inhibitor of the interaction between galectin and a fluorescein tagged saccharide probe; read-out: Gal-3 Kd. The procedure:
as §1

galectin-3, sequence (P17931 whole entry): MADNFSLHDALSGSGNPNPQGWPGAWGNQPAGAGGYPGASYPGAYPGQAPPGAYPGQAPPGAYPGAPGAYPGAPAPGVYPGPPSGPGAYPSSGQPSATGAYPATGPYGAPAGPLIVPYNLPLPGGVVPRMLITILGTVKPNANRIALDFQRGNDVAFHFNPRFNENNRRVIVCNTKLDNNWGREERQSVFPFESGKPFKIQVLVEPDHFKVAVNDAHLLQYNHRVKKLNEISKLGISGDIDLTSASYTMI

In the case of `COC1C(n2cc(-c3cscn3)nn2)[C@@H](O)C(CO)O[C@H]1c1ccnn1-c1cc(Cl)ccc1C(F)(F)F` (stereo partly drawn) [Example 38, 5-Chloro-1-{5-{3-deoxy-2-O-methyl-3-[4-(4-thiazolyl)-1H-1,2,3-triazol-1-yl]-β-D-galactopyranosyl}-1H-1,2-pyrazol-1-yl}-2-(trifluoromethyl)benzene], the Kd in experiment [1] was 0.12 µM; in experiment [2] it was 4.9 µM.

As to `COC1[C@@H](n2cc(-c3nc(Cl)cs3)nn2)[C@@H](O)C(CO)O[C@H]1c1ccnn1-c1cc(Br)c(F)cc1C(F)(F)F` (stereo partly drawn) [Example 23, 5-Bromo-1-{5-{3-[4-(4-chlorothiazol-2-yl)-1H-1,2,3-triazol-1-yl]-3-deoxy-2-O-methyl-β-D-galactopyranosyl}-1H-1,2-pyrazol-1-yl}-4-fluoro-2-(trifluoromethyl)benzene], the equilibrium dissociation constant (Kd) in experiment [1] stood at 0.024 µM; in experiment [2], 0.29 µM.

Turning to `COC1C(n2cc(-c3ncc(C)s3)nn2)[C@@H](O)C(CO)O[C@H]1c1ccnn1-c1cc(Cl)ccc1C(F)(F)F` (stereo partly drawn) [Example 3, 5-Chloro-1-{5-{3-deoxy-3-[4-(5-methylthiazol-2-yl)-1H-1,2,3-triazol-1-yl]-2-O-methyl-β-D-galactopyranosyl}-1H-1,2-pyrazol-1-yl}-2-(trifluoromethyl)benzene], the Kd in experiment [1] is 0.47 µM; in experiment [2], 0.44 µM.

As for `OCC1O[C@@H](c2ccnn2-c2cc(Cl)ccc2C(F)(F)F)C(O)C(n2cc(-c3ncc(Cl)s3)nn2)[C@H]1O` (stereo partly drawn) [Example 10, 1-{5-{3-[4-(5-Chlorothiazol-2-yl)-1H-1,2,3-triazol-1-yl]-3-deoxy-β-D-galactopyranosyl}-1H-1,2-pyrazol-1-yl}-5-chloro-2-(trifluoromethyl)benzene], the Kd in experiment [1] is 0.043 µM; in experiment [2] it was 0.33 µM.

`C=Cc1cc([C@@H]2OC(CO)[C@H](O)C(n3cc(-c4nc(Cl)cs4)nn3)C2OC)n(-c2cc(Cl)ccc2C(F)(F)F)n1` (stereo partly drawn) [Example 29, 1-{5-{3-[4-(4-Chlorothiazol-2-yl)-1H-1,2,3-triazol-1-yl]-3-deoxy-2-O-methyl-β-D-galactopyranosyl}-3-ethenyl-1H-1,2-pyrazol-1-yl}-5-chloro-2-(trifluoromethyl)benzene]: the figures for the equilibrium dissociation constant (Kd) in experiment [1] and in experiment [2] were 0.19 µM and 0.48 µM, respectively.

As to `OCC1O[C@@H](c2ccnn2-c2cc(Cl)ccc2C(F)(F)F)C(O)C(n2cc(-n3ccc(Cl)n3)nn2)[C@H]1O` (stereo partly drawn) [Example 8, 1-{5-{3-[4-(3-Chloro-1H-1,2-pyrazol-1-yl)-1H-1,2,3-triazol-1-yl]-3-deoxy-β-D-galactopyranosyl}-1H-1,2-pyrazol-1-yl}-5-chloro-2-(trifluoromethyl)benzene], the Kd came to 0.27 µM in experiment [1] and 0.88 µM in experiment [2].

For `COC1C(n2cc(-c3nc(Cl)cs3)nn2)[C@@H](O)C(CO)O[C@H]1c1ccnn1-c1ccc2nc(C)sc2c1` (stereo partly drawn) [Example 16, 1-{5-{3-[4-(4-Chlorothiazol-2-yl)-1H-1,2,3-triazol-1-yl]-3-deoxy-2-O-methyl-β-D-galactopyranosyl}-1H-1,2-pyrazol-1-yl}-2-methylbenzothiazole], the dissociation constant Kd in experiment [1] came to 0.038 µM; in experiment [2], 1.5 µM.

For the compound `COC1C(n2cc(-c3nc(Cl)cs3)nn2)[C@@H](O)C(CO)O[C@H]1c1cc(C(N)=O)nn1-c1cc(Cl)ccc1C(F)(F)F` (stereo partly drawn) [Example 39, 1-{3-Aminocarbonyl-5-{3-[4-(4-chlorothiazol-2-yl)-1H-1,2,3-triazol-1-yl]-3-deoxy-2-O-methyl-β-D-galactopyranosyl}-1H-1,2-pyrazol-1-yl}-5-chloro-2-(trifluoromethyl)benzene], the Kd in experiment [1] is 0.2 µM; in experiment [2], 0.32 µM.

`CCc1cc([C@@H]2OC(CO)[C@H](O)C(n3cc(-c4nc(Cl)cs4)nn3)C2OC)n(-c2cc(Cl)ccc2C(F)(F)F)n1` (stereo partly drawn) [Example 30, 1-{5-{3-[4-(4-Chlorothiazol-2-yl)-1H-1,2,3-triazol-1-yl]-3-deoxy-2-O-methyl-β-D-galactopyranosyl}-3-ethyl-1H-1,2-pyrazol-1-yl}-5-chloro-2-(trifluoromethyl)benzene]: the Kd in experiment [1] turned out to be 0.1 µM; in experiment [2], 0.68 µM.

Take `COC1C(n2cc(-c3nc(Cl)cs3)nn2)[C@@H](O)C(CO)O[C@H]1c1ccnn1-c1cc(Cl)c(Cl)cc1C(F)(F)F` (stereo partly drawn) [Example 21, 1-{5-{3-[4-(4-Chlorothiazol-2-yl)-1H-1,2,3-triazol-1-yl]-3-deoxy-2-O-methyl-β-D-galactopyranosyl}-1H-1,2-pyrazol-1-yl}-4,5-dichloro-2-(trifluoromethyl)benzene]: the Kd in experiment [1] was determined as 0.035 µM; in experiment [2], 1.1 µM.

Consider `CCOC(=O)c1cc([C@@H]2OC(CO)[C@H](O)C(n3cc(-c4nc(Cl)cs4)nn3)C2OC)n(-c2cc(Cl)ccc2C(F)(F)F)n1` (stereo partly drawn) [Example 17, 1-{5-{3-[4-(4-Chlorothiazol-2-yl)-1H-1,2,3-triazol-1-yl]-3-deoxy-2-O-methyl-β-D-galactopyranosyl}-3-ethoxycarbonyl-1H-1,2-pyrazol-1-yl}-5-chloro-2-(trifluoromethyl)benzene], for which the dissociation constant (Kd) in experiment [1] stood at 0.24 µM; in experiment [2], 0.88 µM.

Turning to `COC1C(n2cc(-c3csc(O)n3)nn2)[C@@H](O)C(CO)O[C@H]1c1ccnn1-c1cc(Br)c(F)cc1C(F)(F)F` (stereo partly drawn) [Example 37, 5-Bromo-1-{5-{3-deoxy-3-[4-(2-hydroxythiazol-4-yl)-1H-1,2,3-triazol-1-yl]-2-O-methyl-β-D-galactopyranosyl}-1H-1,2-pyrazol-1-yl}-4-fluoro-2-(trifluoromethyl)benzene], the Kd came out at 0.017 µM in experiment [1] and 4.7 µM in experiment [2].

For the compound `OCC1O[C@@H](c2ccnn2-c2cc(Cl)ccc2C(F)(F)F)C(O)C(n2cc(-c3csc(O)n3)nn2)[C@H]1O` (stereo partly drawn) [Example 7, 5-Chloro-1-{5-{3-deoxy-3-[4-(2-hydroxythiazol-4-yl)-1H-1,2,3-triazol-1-yl]-β-D-galactopyranosyl}-1H-1,2-pyrazol-1-yl}-2-(trifluoromethyl)benzene], the dissociation constant (Kd) in experiment [1] was 0.029 µM; in experiment [2], 5.83 µM.

As to `COC1C(n2cc(-c3nc(Cl)cs3)nn2)[C@@H](O)C(CO)O[C@H]1c1cc(C(=O)O)nn1-c1cc(Cl)ccc1C(F)(F)F` (stereo partly drawn) [Example 18, 1-{3-Carboxy-5-{3-[4-(4-chlorothiazol-2-yl)-1H-1,2,3-triazol-1-yl]-3-deoxy-2-O-methyl-β-D-galactopyranosyl}-1H-1,2-pyrazol-1-yl}-5-chloro-2-(trifluoromethyl)benzene], the equilibrium dissociation constant (Kd) in experiment [1] is 0.42 µM; in experiment [2], 0.32 µM.

Take `OCC1O[C@@H](c2ccnn2-c2cc(Br)c(F)cc2C(F)(F)F)C(O)[C@@H](n2cc(-c3nc(Cl)cs3)nn2)[C@H]1O` (stereo partly drawn) [Example 24, 5-Bromo-1-{5-{3-[4-(4-chlorothiazol-2-yl)-1H-1,2,3-triazol-1-yl]-3-deoxy-β-D-galactopyranosyl}-1H-1,2-pyrazol-1-yl}-4-fluoro-2-(trifluoromethyl)benzene]: the Kd in experiment [1] turned out to be 0.036 µM; in experiment [2], 0.2 µM.

For `COC1C(n2cc(-c3nc(Cl)cs3)nn2)[C@@H](O)C(CO)O[C@H]1c1ccnn1-c1cc(Cl)cnc1C(F)(F)F` (stereo partly drawn) [Example 32, 3-{5-{3-[4-(4-Chlorothiazol-2-yl)-1H-1,2,3-triazol-1-yl]-3-deoxy-2-O-methyl-β-D-galactopyranosyl}-1H-1,2-pyrazol-1-yl}-5-chloro-2-(trifluoromethyl)pyridine], the Kd in experiment [1] turned out to be 0.05 µM; in experiment [2], 0.65 µM.

As for `Cc1cc([C@@H]2OC(CO)[C@H](O)C(n3cc(-c4nc(Cl)cs4)nn3)C2O)n(-c2cc(Cl)ccc2C(F)(F)F)n1` (stereo partly drawn) [Example 9, 1-{5-{3-[4-(4-Chlorothiazol-2-yl)-1H-1,2,3-triazol-1-yl]-3-deoxy-β-D-galactopyranosyl}-3-methyl-1H-1,2-pyrazol-1-yl}-5-chloro-2-(trifluoromethyl)benzene], the Kd came out at 0.037 µM in experiment [1] and 0.37 µM in experiment [2].

For `C=C(C)c1cc([C@@H]2OC(CO)[C@H](O)C(n3cc(-c4nc(Cl)cs4)nn3)C2OC)n(-c2cc(Cl)ccc2C(F)(F)F)n1` (stereo partly drawn) [Example 27, 1-{5-{3-[4-(4-Chlorothiazol-2-yl)-1H-1,2,3-triazol-1-yl]-3-deoxy-2-O-methyl-β-D-galactopyranosyl}-3-(1-methylethenyl)-1H-1,2-pyrazol-1-yl}-5-chloro-2-(trifluoromethyl)benzene], the equilibrium dissociation constant (Kd) in experiment [1] was 0.54 µM; in experiment [2] it was 1.2 µM.

With `OCC1O[C@@H](c2ccnn2-c2cc(Br)ccc2C(F)(F)F)C(O)C(n2cc(-c3nc(Cl)cs3)nn2)[C@H]1O` (stereo partly drawn) [Example 19, 5-Bromo-1-{5-{3-[4-(4-chlorothiazol-2-yl)-1H-1,2,3-triazol-1-yl]-3-deoxy-β-D-galactopyranosyl}-1H-1,2-pyrazol-1-yl}-2-(trifluoromethyl)benzene], the dissociation constant (Kd) was found to be 0.043 µM in experiment [1] and 0.28 µM in experiment [2].

`COC1C(n2cc(-c3nccs3)nn2)[C@@H](O)C(CO)O[C@H]1c1cc(C)nn1-c1cc(Cl)ccc1C(F)(F)F` (stereo partly drawn) [Example 14, 5-Chloro-1-{5-{3-deoxy-2-O-methyl-3-[4-(2-thiazolyl)-1H-1,2,3-triazol-1-yl]-β-D-galactopyranosyl}-3-methyl-1H-1,2-pyrazol-1-yl}-2-(trifluoromethyl)benzene]: the figures for the Kd in experiment [1] and in experiment [2] were 0.15 µM and 5.2 µM, respectively.

On to `COC1C(n2cc(-c3nc(Cl)cs3)nn2)[C@@H](O)C(CO)O[C@H]1c1cc(C)nn1-c1ccc2nc(C)sc2c1` (stereo partly drawn) [Example 15, 1-{5-{3-[4-(4-Chlorothiazol-2-yl)-1H-1,2,3-triazol-1-yl]-3-deoxy-2-O-methyl-β-D-galactopyranosyl}-3-methyl-1H-1,2-pyrazol-1-yl}-2-methylbenzothiazole], for which the results for the Kd in experiment [1] and in experiment [2] were 0.067 µM and 2 µM, respectively.

One may read the Kd as the constant that tells how readily two partners part at equilibrium.
